# Measurements taken from publication PMC9293210, “Molecular Recognition of Natural and Non‐Natural Substrates by Cellodextrin Phosphorylase from Ruminiclostridium Thermocellum Investigated by NMR Spectroscopy” (Chemistry (Weinheim an Der Bergstrasse, Germany), 2021).
# How the values were obtained:
# [1] = biological target: T1, cellodextrin phosphorylase (CDP) (Acetivibrio thermocellus, UniProt Q93HT8); assay: STD NMR, binding epitope mapping; tr-NOESY; details: [D11]Tris 25 mM pH 7.4, NaCl 100 mM, 278 K (STD); tr-NOESY 290 K; 3 mM ligand, 15 uM binding sites (STD); acceptor site
# T1 construct: gene cdp-ym4; 1009 amino acids, 114 kDa per monomer, homodimer
# T1 sequence (Q93HT8 1-984): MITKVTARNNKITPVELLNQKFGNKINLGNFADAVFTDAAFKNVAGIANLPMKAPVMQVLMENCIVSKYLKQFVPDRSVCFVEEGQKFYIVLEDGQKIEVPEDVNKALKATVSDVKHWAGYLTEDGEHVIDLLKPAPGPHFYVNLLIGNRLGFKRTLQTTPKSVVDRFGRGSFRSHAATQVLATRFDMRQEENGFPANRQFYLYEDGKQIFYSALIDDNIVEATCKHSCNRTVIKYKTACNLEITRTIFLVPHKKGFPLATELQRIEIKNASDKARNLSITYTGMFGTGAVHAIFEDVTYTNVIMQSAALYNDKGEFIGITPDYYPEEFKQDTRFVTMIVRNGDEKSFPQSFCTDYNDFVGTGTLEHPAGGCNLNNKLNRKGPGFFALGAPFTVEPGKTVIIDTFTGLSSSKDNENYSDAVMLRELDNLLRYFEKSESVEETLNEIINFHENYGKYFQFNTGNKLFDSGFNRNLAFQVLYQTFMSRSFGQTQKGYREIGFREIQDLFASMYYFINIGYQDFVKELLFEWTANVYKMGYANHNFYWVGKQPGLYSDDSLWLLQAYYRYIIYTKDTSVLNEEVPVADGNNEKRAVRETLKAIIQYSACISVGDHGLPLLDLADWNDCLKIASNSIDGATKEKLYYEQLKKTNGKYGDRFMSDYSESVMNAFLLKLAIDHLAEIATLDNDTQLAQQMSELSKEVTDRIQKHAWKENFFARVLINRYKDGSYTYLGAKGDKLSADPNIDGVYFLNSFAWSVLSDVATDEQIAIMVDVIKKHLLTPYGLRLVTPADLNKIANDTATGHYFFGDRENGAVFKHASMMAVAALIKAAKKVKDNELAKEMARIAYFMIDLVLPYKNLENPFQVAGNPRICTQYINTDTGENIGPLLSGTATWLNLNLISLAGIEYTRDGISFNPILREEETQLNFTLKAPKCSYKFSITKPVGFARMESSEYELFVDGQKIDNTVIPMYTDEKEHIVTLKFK
# [2] = biological target: T1, cellodextrin phosphorylase (CDP); assay: STD NMR, binding epitope mapping; details: [D11]Tris 25 mM pH 7.4, NaCl 100 mM, 278 K; 3 mM ligand, 15 uM binding sites; acceptor site
# [3] = biological target: T1, cellodextrin phosphorylase (CDP); assay: STD NMR titration (STD-AF of H4beta, […] s saturation); type: binding; details: [D11]Tris 25 mM pH 7.4, NaCl 100 mM; no phosphate; apparent
smiles,measurement,setting,value
OC[C@H]1O[C@@H](O[C@H]2[C@H](O)[C@@H](CO)OC(O)[C@@H]2O)[C@H](O)[C@@H](O)[C@@H]1O (stereo partly drawn) [D-laminaribiose],"STD NMR, binding epitope mapping; tr-NOESY",[1],H2 of the non‐reducing glucose ring received the largest saturation transfer
OC[C@H]1O[C@@H](O[C@H]2[C@H](O)[C@@H](O)[C@H](O[C@H]3[C@H](O)[C@@H](O)C(O)O[C@@H]3CO)O[C@@H]2CO)[C@H](O)[C@@H](O)[C@@H]1O (stereo partly drawn) [D-cellotriose],"STD NMR, binding epitope mapping",[2],D‐cellotriose showed contacts for both the reducing α‐ and β‐glucose rings
OC[C@H]1O[C@@H](O[C@H]2[C@H](O)[C@@H](O)C(O)O[C@@H]2CO)[C@H](O)[C@@H](O)[C@@H]1O (stereo partly drawn) [D-cellobiose],Kd,[3],2200 µM
